Reference: the supplement of paper PMC10307832

Assays:
Test in all cases: relative viability (nuclei count vs DMSO), 5 days (fraction); higher = more cells survive
[1] = compound: C1=CC(=CC=C1NC(=S)NNC2=C(C=C(C=C2[N+](=O)[O-])C(F)(F)F)[N+](=O)[O-])F [Kobe2602] + CC(=O)Nc1cccc(-n2c(=O)n(C3CC3)c(=O)c3c(Nc4ccc(I)cc4F)n(C)c(=O)c(C)c32)c1 [Trametinib] (partner 0.02 µM)
In short: (§1)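 Cells from lung cancer lines were seeded into 1536-well plates and, one day later, dosed by pin tool. Treatments were either a single drug or a fixed dose of an anchor drug with five library-drug doses (not always all listed) in √10 steps. After 5 days, nuclei were stained in a one-step fixation (final 0.05% Triton X-100, 1% formaldehyde, 1 ug/ml Hoechst) and counted on 4× images, and relative viability is the treated-to-vehicle nuclei ratio, as the median of duplicate plates.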

[2] = compound: O[C@@H](COc1cccc2ncccc12)CN1CCN([C@@H]2c3ccccc3[C@@H]3[C@H](c4ccccc42)C3(F)F)CC1 [Zosuquidar] + N=C(N)NC(=N)NCCc1ccccc1 [Phenformin] (partner 250 µM)
In short: as §1

[3] = compound: O[C@@H](COc1cccc2ncccc12)CN1CCN([C@@H]2c3ccccc3[C@@H]3[C@H](c4ccccc42)C3(F)F)CC1 [Zosuquidar] + O=C(c1cc(Cc2n[nH]c(=O)c3ccccc23)ccc1F)N1CCN(C(=O)C2CC2)CC1 [Olaparib] (partner 8 µM)
In short: as §1

[4] = compound: O[C@@H](COc1cccc2ncccc12)CN1CCN([C@@H]2c3ccccc3[C@@H]3[C@H](c4ccccc42)C3(F)F)CC1 [Zosuquidar] + CC1(C)CCC(c2ccc(Cl)cc2)=C(CN2CCN(c3ccc(C(=O)NS(=O)(=O)c4ccc(N[C@H](CCN5CCOCC5)CSc5ccccc5)c(S(=O)(=O)C(F)(F)F)c4)cc3)CC2)C1 [Navitoclax] (partner 0.5 µM)
In short: as §1

Cell Line | relative viability ([1]; first compound 0.2 µM) | relative viability ([1]; first compound 0.6325 µM) | relative viability ([1]; first compound 2 µM) | relative viability ([1]; first compound 6.325 µM) | relative viability ([1]; first compound 20 µM) | relative viability ([2]; first compound 0.01 µM) | relative viability ([2]; first compound 0.1 µM) | relative viability ([2]; first compound 0.3162 µM) | relative viability ([2]; first compound 1 µM) | relative viability ([3]; first compound 0.01 µM) | relative viability ([3]; first compound 0.03162 µM) | relative viability ([3]; first compound 0.1 µM) | relative viability ([3]; first compound 0.3162 µM) | relative viability ([3]; first compound 1 µM) | relative viability ([4]; first compound 0.01 µM) | relative viability ([4]; first compound 0.03162 µM) | relative viability ([4]; first compound 0.1 µM) | relative viability ([4]; first compound 0.3162 µM) | relative viability ([4]; first compound 1 µM) | relative viability ([2]; first compound 0.03162 µM)
NCI-H2087 | 0.29 | 0.188 | 0.173 | 0.196 | 0.191 | 0.426 | 0.363 | 0.545 | 0.492 | 0.586 | 0.557 | 0.603 | 0.578 | 0.539 | 0.968 | 0.994 | 0.965 | 1.18 | 1.08 | –
NCI-H2126 | 0.594 | 0.598 | 0.52 | 0.577 | 0.459 | 0.544 | – | 0.539 | 0.532 | 0.909 | 0.868 | 0.849 | 0.922 | 0.917 | 0.79 | 0.845 | 0.741 | 0.889 | 0.845 | 0.542
NCI-H2170 | 0.982 | 0.918 | 0.921 | 0.878 | 0.922 | 0.388 | 0.393 | 0.395 | 0.445 | 0.546 | 0.629 | 0.612 | 0.63 | 0.562 | 0.651 | 0.626 | 0.557 | 0.673 | 0.571 | 0.463
NCI-H2228 | 0.645 | 0.612 | 0.41 | 0.461 | 0.742 | 0.291 | 0.256 | 0.47 | 0.257 | 0.626 | 0.51 | 0.61 | 0.64 | 0.936 | 1.12 | 0.679 | 0.922 | 1.12 | 0.775 | 0.338
NCI-H2347 | 0.291 | 0.251 | 0.336 | 0.304 | 0.326 | 0.411 | 0.253 | 0.396 | 0.426 | 0.589 | 0.545 | 0.579 | 0.603 | 0.475 | 0.891 | 0.686 | 0.583 | 0.931 | 0.944 | 0.394
NCI-H2405 | 0.644 | 0.712 | 0.621 | 0.66 | 0.669 | 0.406 | 0.344 | 0.46 | 0.388 | 0.903 | 0.758 | 0.756 | 0.95 | 0.829 | 1.01 | 0.853 | 0.723 | 1.07 | 0.894 | 0.348
NCI-H3122 | 0.257 | 0.242 | 0.211 | 0.214 | 0.238 | 0.346 | – | 0.377 | 0.319 | 0.606 | 0.608 | 0.565 | 0.621 | 0.637 | 1.04 | 0.98 | 1.05 | 1.02 | 1.01 | 0.38
PC-3 [JPC-3] | 0.69 | 0.699 | 0.7 | 0.683 | 0.668 | 0.493 | 0.462 | 0.46 | 0.453 | 1.09 | 1.18 | 0.873 | 1.09 | 1.1 | 0.783 | 0.775 | 0.755 | 0.792 | 0.755 | 0.493
PC-14 | 0.697 | 0.693 | 0.659 | 0.823 | 0.361 | 0.502 | 0.447 | 0.645 | 0.47 | 0.26 | 0.319 | 0.205 | 0.307 | 0.179 | 1.05 | 0.988 | 0.983 | 0.934 | 0.959 | 0.533
RERF-LC-KJ | 0.839 | 0.836 | 0.864 | 0.802 | 0.525 | 0.41 | 0.397 | 0.402 | 0.355 | 0.802 | 0.985 | 0.878 | 1.01 | 0.855 | 0.99 | 0.853 | 0.947 | 1.11 | 0.844 | 0.45
SK-LU-1 | 0.519 | 0.506 | 0.469 | 0.439 | 0.58 | 0.547 | 0.531 | 0.632 | 0.557 | 0.517 | 0.535 | 0.485 | 0.531 | 0.435 | 0.82 | 0.789 | 1.44 | 0.974 | 0.586 | 0.522
SK-MES-1 | 0.579 | 0.534 | 0.554 | 0.589 | 0.496 | 0.661 | 0.644 | 0.607 | 0.637 | 0.707 | 0.739 | 0.829 | 0.73 | 0.723 | 1.19 | 1.18 | 1.09 | 1.25 | 1.25 | 0.622
SW 1573 | 0.67 | 0.677 | 0.46 | 0.458 | 0.155 | 0.405 | 0.457 | 0.417 | 0.39 | 0.427 | 0.357 | 0.544 | 0.471 | 0.446 | 0.974 | 0.896 | 1.07 | 1.05 | 1.02 | 0.311
